System: Plasmodium falciparum
Experiment: GSK_TCMDC: Inhibition of Plasmodium falciparum 3D7 in whole erythrocytes, using parasite LDH activity as an index of growth.
Type: functional, organism-based
Settings: Plasmodium falciparum, 3D7

Row | Compound | XC50 [µM]
1 | O=C(/C=C/c1cc([N+](=O)[O-])ccc1Cl)NC1CCC(CN2CCC(c3c[nH]c4ccccc34)CC2)CC1 (stereo unspecified) | 0.74
2 | CCN(CC)CCc1ccc2c(=O)cc(CCc3cccc(F)c3F)n(CC(=O)N(C)Cc3ccc(-c4ccc(C(F)(F)F)cc4)cc3)c2c1 | 0.862
3 | CCN(CC)CCN(Cc1ccc(-c2ccc(C(F)(F)F)cc2)cc1)C(=O)Cn1c(CCc2ccc(F)c(F)c2)nc(=O)c2ccccc21 | 1.58
4 | CCNc1cc(C(=O)N[C@@H](Cc2ccccc2)[C@H](O)CN[C@@H]2CCc3ccccc32)cc(N2CCCC2=O)c1 | 1.02
5 | Cc1nc(O)c2c(ccc3ccc(CNc4ccc(C(=O)N[C@@H](CCC(=O)O)C(=O)O)c(F)c4)cc32)n1 | 0.402
6 | O=C(/C=C/c1ccc(Cl)c(Cl)c1)NCCCCCCN1CCCN(C(=O)Nc2ccc(Cl)c(Cl)c2)CC1 | 0.666
7 | Cc1[nH]c(C)c([N+](=O)[O-])c(=O)c1-c1ccc(Oc2ccc(OC(F)(F)F)cc2)cc1 | 0.247
8 | Cc1ccc(Nc2ccnc(Nc3ccc4c(c3)CS(=O)(=O)C4)n2)cc1O | 0.725
9 | O=C(Nc1cccnc1)c1ccc(-c2cc3ccncc3cc2OC2CCNCC2)s1 | 0.884
10 | O=C1CCCN1CCCNCc1cccc(-c2ccc(-c3nc4cc(C(F)(F)F)ccc4[nH]3)s2)c1 | 0.448
11 | COc1cc(NC(=O)N2CCOC(CCN3CCC(c4ccccc4)CC3)(c3ccc(Cl)c(Cl)c3)C2)cc(OC)c1 (stereo unspecified) | 0.287
12 | CCc1cn2c3c(cc(C(=O)N[C@@H](Cc4cccc(Cl)c4)[C@H](O)CNC4CCOCC4)cc13)N(C)S(=O)(=O)CC2 | 0.0442
13 | CN1CCN(c2ccc(Cl)cc2NC(=O)C2COc3ccccc3O2)CC1 (stereo unspecified) | 0.81
14 | COc1ccc(-c2ccc(NC(=O)c3ccc(Cl)cc3)cc2)cc1CN1CCNCC1 | 0.129
15 | CC(C)(C)c1ccc(O)c(CNC2CCCCC2)c1 | 0.264
16 | O=C(OCc1ccccn1)c1nc2ccccc2[nH]1 | 0.793
17 | CCc1c(CCNCCCCCCNCCc2ccc(OC)c(OC)c2CC)ccc(OC)c1OC | 0.735
18 | COc1cc(NC(=O)Nc2cc(C)nc3ccccc23)cc(OC)c1 | 0.396
19 | O=C(NC(Nc1ccc([N+](=O)[O-])cc1)C(Cl)(Cl)Cl)c1cccc(Cl)c1 (stereo unspecified) | 0.863
20 | O=C(/C=C/c1cccs1)NC1CCC(CN2CCC(c3c[nH]c4ccccc34)CC2)CC1 (stereo unspecified) | 1.05
21 | O=C(Nc1cccc(CN2CCCN(Cc3ccc(O)cc3)CC2)c1)c1cc2ccccc2o1 | 1.2
22 | N#Cc1cccc(Nc2ncc3c(-c4cccc(NC(=O)Cc5cccc(Cl)c5)c4)c[nH]c3n2)c1 | 0.423
23 | COc1ccccc1/C=C/C(=O)NC1CCC(CCN2CCc3ccc(-c4cc(C)no4)cc3CC2)CC1 (stereo unspecified) | 0.961
24 | O=C(N[C@@H](Cc1ccccc1)C(=O)NC1CCCCC1)c1ccc(O)c(-c2ccc(Cl)c(Cl)c2)c1 | 0.231

Row | Compound | XC50 [µM]
25 | CC1(C)NC(N)=NC(=N)N1OCCOc1ccc2ccccc2c1 | 0.0032
26 | CC[C@H]1CN2CC[C@@H]1C[C@H]2[C@H](O)c1cc(-c2c(C)noc2C)nc2ccc(OC)cc12 | 0.033
27 | Cc1nc2nc(N)nc(N)c2c(C)c1Cc1c(Cl)cccc1Cl | 0.0489
28 | CN1CCCc2ccc(NC(=O)Nc3ccc(Cl)c(Cl)c3)cc2C1 | 0.603
29 | CC(Oc1ccc(Cl)cc1Cl)c1nc(-c2ccc(NC(=O)c3ccco3)cc2)no1 (stereo unspecified) | 0.905
30 | N#Cc1ccc(N2CCN(Cc3cccc(-c4ccc(-c5nc6cc(C(F)(F)F)ccc6[nH]5)cc4)c3)CC2)nc1 | 0.702
31 | Cc1cc(N[C@@H](Cc2ccccc2)C(=O)NCc2cccc(F)c2)nc(NCCc2ccc(F)cc2)n1 | 0.649
32 | Nc1nc(O)c2cc(CN(C=O)c3ccc(C(=O)N[C@@H](CCC(=O)O)C(=O)O)cc3)ccc2n1 | 0.179
33 | CC(Oc1ccc(Cl)cc1)C(=O)NCCC1CCN(CCCCCNC(=O)/C=C/c2ccc(Cl)c(Cl)c2)CC1 (stereo unspecified) | 1.02
34 | COc1nc(Nc2cccc(C)c2)nc(OC)n1 | 1.01
35 | CC(=O)Nc1ccc(OCCN(CC(C)C)c2ccc(C(F)(F)F)c(C#N)c2)c(Cl)c1 | 0.308
36 | CCC1(c2ccccc2)N=C(N)N(CCCc2ccccc2)C1=O (stereo unspecified) | 0.891
37 | O=C(Nc1cc(F)c(F)c(-c2cccnc2)c1)N1CCc2cc(Cl)c(Cl)cc21 | 0.844
38 | CC(C)COc1ccc(Cl)cc1Cc1nc(-c2nc3cccc(CN4CCN(C)CC4)c3[nH]2)cs1 | 1.33
39 | COc1cc(NCCCNC(=O)c2cc3c(Cl)cc(Cl)cc3[nH]2)nc2ccccc12 | 0.144
40 | CCc1ccc(C2CCN(CCCCNC(=O)c3ccc(NC(=O)c4ccc(Cl)cc4)cc3)CC2)cc1 | 0.646
41 | CCc1nc2ccc(C(=O)OC)nc2n1Cc1ccc2oc(-c3ccccc3N)c(Br)c2c1 | 0.822
42 | Clc1ccc(CNc2nc(NCCc3c[nH]cn3)nc(Nc3ccc4c(c3)OCO4)n2)cc1 | 0.955
43 | Cc1ccc(NC(=O)NC2CCN(CCCCCNC(=O)/C=C/c3ccc(Cl)c(Cl)c3)CC2)cc1C | 0.733
44 | COc1cccc(CC(=O)NC2CCN(c3ccnc4cc(Cl)ccc34)C2)c1 (stereo unspecified) | 0.704
45 | COc1ccc(-c2ccc(NC(=O)c3ccc(F)cc3)cc2)cc1CN1CCCN(C)CC1 | 0.663
46 | COc1ccccc1N1CCN(CCCCNC(=O)c2ccc(NC(=O)c3ccc(OC(F)(F)F)cc3)cc2)CC1 | 0.663
47 | CC1(C)NC(N)=NC(=N)N1OCCSc1ccc(Cl)c(Cl)c1 | 0.0032
48 | O=c1cc(NCCCNCc2ccc(Cl)c(Cl)c2)[nH]c2cc(Cl)ccc12 | 0.925

Row | Compound | XC50 [µM]
49 | COc1ccc(C2CC(=O)C3=C(C2)NC(C)=C(C(=O)OC(C)C)C3c2ccccc2F)cc1OC (stereo unspecified) | 0.0616
50 | Cc1cc(NCCc2ccccc2)nc(NC(=N)Nc2cccc(F)c2)n1 | 0.899
51 | Fc1cc(Cl)ccc1Nc1ccnc2cc(-c3ccc(CN4CCNCC4)o3)ccc12 | 0.277
52 | CCN1CCN(c2cc(C)c3cc(NC(=O)c4ccc([N+](=O)[O-])c(C)c4)ccc3n2)CC1 | 0.654
53 | COc1ccc(CN2CCC(N3CCc4cc(NC(=O)c5cc(C)on5)ccc43)C2)cc1Cl (stereo unspecified) | 0.939
54 | COc1ccc(Nc2nccc(NCC(O)c3ccc(C(F)(F)F)cc3)n2)cc1 (stereo unspecified) | 0.545
55 | COC(=O)Cc1ccc(N)c2ccccc12 | 0.702
56 | COc1ccc2c(NN=Cc3ccccc3)ccnc2c1 | 0.13
57 | O=C(NCc1cccc(F)c1)c1ccc(O)c(-c2cc(Cl)cc(Cl)c2)c1 | 0.559
58 | COc1ccc2c(OC)cccc2c1CNCCCCCCNCc1c(OC)ccc2c(OC)cccc12 | 0.686
59 | O=C(Nc1ccc(C(F)(F)F)cc1)NC1CCN(c2ccnc3cc(Cl)ccc23)C1 (stereo unspecified) | 0.139
60 | Cc1cc(N[C@@H](Cc2ccccc2)C(=O)NCc2cccs2)nc(NCC2CCCCC2)n1 | 0.988
61 | CC(C)NCc1ccc(-c2ccc(NC(=O)c3ccc(Cl)cc3)cc2)cc1 | 0.91
62 | COC(=O)c1ccc2[nH]cc(C3CCN(CCC4CCN(C(=O)/C=C/c5ccc(Cl)c(Cl)c5)CC4)CC3)c2c1 | 0.512
63 | COc1ccc2ccccc2c1CNCCCCCCNCc1c(OC)ccc2ccccc12 | 0.712
64 | COC(=O)C(c1ccc(NC(=O)[C@H](CC(C)C)NC(=O)OC(C)(C)C)cc1)c1ccc(NC(=O)[C@H](CC(C)C)NC(=O)OC(C)(C)C)cc1 | 0.348
65 | CC(C)(Cc1ccc(Cl)cc1)NCCCCCCNCCc1ccc(O)c(O)c1 | 1.2
66 | Fc1cccc2sc(Nc3nc(-c4ccccn4)cs3)nc12 | 0.906
67 | COc1cccc(Nc2nnc(SCC(=O)NNC(=O)c3ccccn3)s2)c1 | 0.38
68 | O=C(Nc1cccc(CN2CCN(C(=O)c3ccccc3)CC2)c1)c1ccco1 | 0.886
69 | CCCC(=O)Nc1ccc(OCCCCN(Cc2ccccc2C(F)(F)F)c2ccc(C(F)(F)F)c(C#N)c2)cc1 | 0.973
70 | CC(=O)Nc1nc(C(=O)Nc2ccc(-c3ccc(-c4nc5ccccc5[nH]4)cc3)cc2)cs1 | 0.15
71 | CCc1ccc(NC(=O)c2ccc(CN3CCCN(Cc4cccs4)CC3)cc2)cc1 | 0.827
72 | COc1ccc(NC(=O)c2cc(-c3ccc(NC(C)=O)cc3)cnc2N)cc1 | 0.806

Row | Compound | XC50 [µM]
73 | COc1cccc(CN2CCC3(CC2)CN(C(=O)Nc2ccc(Cl)c(Cl)c2)C3)c1 | 0.752
74 | Cc1cc(Nc2ncc(Cl)c(Nc3ccccc3C(N)=O)n2)n[nH]1 | 0.811
75 | CCCCCN1CCCN(Cc2cccc(NC(=O)c3ccc(Cl)c(Cl)c3)c2)CC1 | 0.927
76 | O=C(/C=C/c1ccc(Cl)c(Cl)c1)NCCCCCCN1CCCN(C(=O)Nc2ccc(F)c(Cl)c2)CC1 | 0.738
77 | C=CCOC(=O)O[C@@H]1[C@@H](OC(=O)OCC=C)[C@@H](OC)O[C@H](COC(c2ccccc2)(c2ccccc2)c2ccccc2)[C@H]1OC(=O)OCC=C | 0.887
78 | CCOC(=O)N1NC(=O)N(c2ccccc2)C1(c1ccccc1)c1ccccc1 | 0.697
79 | CCN(Cc1ccccc1)C1CCN(Cc2cc(Br)ccc2O)CC1 | 0.823
80 | Brc1ccccc1CNc1ccnc(NCCn2ccnc2)n1 | 0.9
81 | Nc1nc(N)c2cc(C#Cc3ccc(-c4ccccc4)cc3)ccc2n1 | 0.81
82 | NC(=O)c1cccc(Nc2nccc(Nc3ccc4[nH]c(-c5ccccc5)cc4c3)n2)c1 | 0.776
83 | COCCSc1ccc(CC(C)NCC(O)c2cccc(Cl)c2)cc1 (stereo unspecified) | 0.758
84 | CC(=O)c1ccc2c(c1)CCN(CCC1CCC(NC(=O)c3cc4ccccc4[nH]3)CC1)CC2 (stereo unspecified) | 0.982
85 | COc1cccc(C(=O)N2CCN(Cc3cccc(NC(=O)c4cccs4)c3)CC2)c1 | 0.483
86 | c1ccc(-c2cc(NCCCn3ccnc3)nc(-c3cccnc3)n2)cc1 | 0.977
87 | C=CCOc1ccc(Cc2cnc(N)nc2N)cc1CCC | 1.02
88 | CN(C(=O)OCc1ccccc1)C1CCC(CCN2CCC3(CC2)C(=O)NCN3c2cccc(C(F)(F)F)c2)(c2ccccc2)CC1 (stereo unspecified) | 1.18
89 | Cc1cccc2nc(-c3cccc(-c4ccc(NC(=O)c5cccc(C(N)=O)c5)cc4)c3)[nH]c12 | 0.41
90 | COc1ccc2nccc([C@@H](O)CN3CCC(NCc4ccc5c(n4)NC(=O)CS5)C(F)C3)c2c1 (stereo partly specified) | 0.912
91 | CN1CCC(NCc2cccc(-c3cccc(S(=O)(=O)NCc4ccccc4)c3)c2)CC1 | 0.749
92 | C=C(C)CSc1nc2c(c(=O)n1CCc1ccccc1)C1(CCCC1)Cc1ccccc1-2 | 0.607
93 | Cc1c(Cl)ccc2sc(N3CCN(C(=O)c4ccc([N+](=O)[O-])o4)CC3)nc12 | 0.745
94 | Cc1ccc(Cl)cc1NC(=O)c1c(-c2ccccc2Cl)noc1C | 0.192
95 | O=C(c1ccc(-c2ccc(-c3nc4cc(C(F)(F)F)ccc4[nH]3)s2)cc1)N1CCCCC1CN1CCC(O)C1 (stereo unspecified) | 0.56
96 | CCc1ccccc1N1CCN(CCCC(=O)c2ccc(NC(=O)c3cc(Cl)cc(Cl)c3)cc2)CC1 | 0.29

From ChEMBL document CHEMBL1157539, “Thousands of chemical starting points for antimalarial lead identification” (Nature, 2010)
